Values of other authors in patent publication US20260364079A1 (Principia Biopharma Inc., priority 2022, published 2026).

Conditions: humans, oral administration; cited from earlier work

CC(C)(C=C(C#N)C(=O)N1CCC[C@@H](n2nc(-c3ccc(Oc4ccccc4)cc3F)c3c(N)ncnc32)C1)N1CCN(C2COC2)CC1 (mixture of isomers) [rilzabrutinib, (R)-2-[3-[4-amino-3-(2-fluoro-4-phenoxy-phenyl)pyrazolo[3,4-d]pyrimidin-1-yl]piperidine-1-carbonyl]-4-methyl-4-[4-(oxetan-3-yl)piperazin-1-yl]pent-2-enenitrile]
pharmacokinetics variability: variable pharmacokinetics
